# From paper PMC12198407, “Preclinical and first-in-human of purinostat mesylate, a novel selective HDAC I/IIb inhibitor, in relapsed/refractory multiple myeloma and lymphoma” (Signal Transduction and Targeted Therapy, 2025)
# “Also recorded” adds a separate entry of the source.
# How the values were obtained:
# HDAC1 = HDAC1 (Homo sapiens, UniProt Q13547); assay: HDAC enzyme activity in vitro; format: biochemical
# HDAC10 = HDAC10 (Homo sapiens, UniProt Q969S8); assay: HDAC enzyme activity in vitro; format: biochemical
# Ramos-luc = assay: Luciferase substrate viability assay; format: cell-based, human
# CYP2D6 = molecular target: T1, CYP2D6 (Homo sapiens, UniProt P10635); assay: CYP inhibition, human liver microsomes; format: in vitro ADME
# T1 construct: human liver microsomal cytochrome P450 isoenzymes; from tissue; host or cells: human liver microsomes
# [1] = Phase I trial NCT05526313, safety and tolerability (adverse events, CTCAE 5.0)
# T1 sequence (P10635 whole entry): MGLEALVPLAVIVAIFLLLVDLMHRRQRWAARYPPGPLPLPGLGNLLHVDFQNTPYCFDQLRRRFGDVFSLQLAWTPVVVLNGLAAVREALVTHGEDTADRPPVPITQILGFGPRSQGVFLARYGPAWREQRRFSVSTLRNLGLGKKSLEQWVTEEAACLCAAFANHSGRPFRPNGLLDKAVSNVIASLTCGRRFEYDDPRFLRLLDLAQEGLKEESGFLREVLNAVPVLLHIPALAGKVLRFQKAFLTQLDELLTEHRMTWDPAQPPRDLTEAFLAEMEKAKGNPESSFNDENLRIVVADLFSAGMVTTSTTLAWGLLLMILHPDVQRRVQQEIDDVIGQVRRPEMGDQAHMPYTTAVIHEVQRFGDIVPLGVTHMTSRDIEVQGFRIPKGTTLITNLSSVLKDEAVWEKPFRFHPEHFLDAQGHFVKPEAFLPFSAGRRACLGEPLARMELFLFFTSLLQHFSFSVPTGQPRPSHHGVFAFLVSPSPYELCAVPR
# Sequence of HDAC10 (Q969S8 whole entry): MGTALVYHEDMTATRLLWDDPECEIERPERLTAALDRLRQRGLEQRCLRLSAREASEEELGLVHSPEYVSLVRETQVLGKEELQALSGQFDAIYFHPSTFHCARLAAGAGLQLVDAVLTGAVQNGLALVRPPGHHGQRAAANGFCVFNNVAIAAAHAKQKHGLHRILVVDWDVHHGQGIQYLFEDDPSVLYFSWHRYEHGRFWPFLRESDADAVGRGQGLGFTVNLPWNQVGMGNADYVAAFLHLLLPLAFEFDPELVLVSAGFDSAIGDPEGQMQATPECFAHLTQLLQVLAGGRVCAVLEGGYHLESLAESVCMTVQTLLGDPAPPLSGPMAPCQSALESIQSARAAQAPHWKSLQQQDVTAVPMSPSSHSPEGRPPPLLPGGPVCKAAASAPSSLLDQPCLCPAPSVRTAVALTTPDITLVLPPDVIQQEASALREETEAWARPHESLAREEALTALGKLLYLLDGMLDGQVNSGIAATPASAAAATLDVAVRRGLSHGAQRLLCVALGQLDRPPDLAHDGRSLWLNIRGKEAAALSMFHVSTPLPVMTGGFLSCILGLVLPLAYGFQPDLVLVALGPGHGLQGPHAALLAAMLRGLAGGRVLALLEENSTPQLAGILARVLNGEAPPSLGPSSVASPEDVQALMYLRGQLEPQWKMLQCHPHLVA
# Sequence of HDAC1 (Q13547 whole entry): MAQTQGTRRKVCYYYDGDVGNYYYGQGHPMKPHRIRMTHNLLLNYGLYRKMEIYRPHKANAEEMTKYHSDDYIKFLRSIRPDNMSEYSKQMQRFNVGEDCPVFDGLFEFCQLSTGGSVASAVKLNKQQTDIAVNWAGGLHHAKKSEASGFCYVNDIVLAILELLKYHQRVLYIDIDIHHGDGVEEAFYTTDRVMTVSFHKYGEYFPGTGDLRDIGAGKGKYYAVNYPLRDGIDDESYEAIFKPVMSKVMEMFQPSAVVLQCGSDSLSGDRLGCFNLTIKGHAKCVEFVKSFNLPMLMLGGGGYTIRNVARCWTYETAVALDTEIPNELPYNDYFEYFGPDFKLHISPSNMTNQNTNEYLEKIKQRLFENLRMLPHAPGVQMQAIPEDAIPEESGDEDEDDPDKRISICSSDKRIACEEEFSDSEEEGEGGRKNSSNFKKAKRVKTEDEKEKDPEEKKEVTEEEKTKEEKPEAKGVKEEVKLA
structure (smiles),measurement,setting,value
"CN(Cc1nc2c(N3CCOCC3)nc(-c3ccc(N)cc3)nc2n1C)c1ncc(C(=O)NO)cn1.CS(=O)(=O)O [PM, 2-(((2-(4-Aminophenyl)-9-methyl-6-(4-morpholinyl)-9H-purine-8-yl)methyl)methylamino)-N-hydroxy-5-pyrimidine-carboxamide Mesylate]",IC50,HDAC1,0.81 nM
same,IC50,HDAC10,1.1 nM
same,time until effect detectable,Ramos-luc,24 h
same,IC50,CYP2D6,> 10000 nM
same,dose-limiting toxicity (DLT),[1]; 1.2–15 mg/m^2,no dose-limiting toxicities observed; also recorded: no dose-limiting toxicity (DLT) events occurred; also recorded: no arrhythmias or DLT were observed
same,grade 5 events,[1]; 29 treated patients,no grade 5 events reported
same,patients with grade 3–4 TEAEs,[1]; 29 treated patients,25 (86.2%) n (%)
same,COVID-19,[1]; […],1(3.4) n (%)
same,Investigations (SOC),[1]; […],29(100.0) n (%)
same,QRS axis abnormalities,[1]; […],1(3.4) n (%)
same,ST segment abnormalities on ECG,[1]; […],5(17.2) n (%)
same,ST-T segment changes on ECG,[1]; […],9(31.0) n (%)
same,T wave abnormalities on ECG,[1]; […],9(31.0) n (%)
same,abdominal discomfort,[1]; […],1(3.4) n (%)
same,abdominal distension,[1]; […],4(13.8) n (%)
same,abdominal pain,[1]; […],2(6.9) n (%)
same,abnormal liver function,[1]; […],1(3.4) n (%)
same,alopecia,[1]; […],1(3.4) n (%)
same,anemia,[1]; […],20(69.0) n (%)
same,angular cheilitis,[1]; […],1(3.4) n (%)
same,appendicitis,[1]; […],1(3.4) n (%)
same,arrhythmia,[1]; […],1(3.4) n (%)
same,arthralgia,[1]; […],3(10.3) n (%)
same,atrial tachycardia,[1]; […],1(3.4) n (%)
same,backache,[1]; […],1(3.4) n (%)
same,bacteremia,[1]; […],1(3.4) n (%)
same,belching,[1]; […],1(3.4) n (%)
same,bleeding gums,[1]; […],1(3.4) n (%)
same,blood and lymphatic system diseases (SOC),[1]; […],20(69.0) n (%)
same,chill,[1]; […],1(3.4) n (%)
same,conjunctival bleeding,[1]; […],1(3.4) n (%)
same,constipation,[1]; […],1(3.4) n (%)
same,cough,[1]; […],1(3.4) n (%)
same,decreased blood fibrinogen,[1]; […],1(3.4) n (%)
same,decreased lymphocyte count,[1]; […],16(55.2) n (%)
same,decreased monocyte count,[1]; […],2(6.9) n (%)
same,decreased neutrophil count,[1]; […],25(86.2) n (%)
same,decreased platelet count,[1]; […],24(82.8) n (%)
same,decreased white blood cell count,[1]; […],24(82.8) n (%)
same,diarrhea,[1]; […],4(13.8) n (%)
same,dizziness,[1]; […],13(44.8) n (%)
same,duodenogastric reflux,[1]; […],1(3.4) n (%)
same,dyspepsia,[1]; […],1(3.4) n (%)
same,dyspnea,[1]; […],1(3.4) n (%)
same,elevated blood creatine phosphokinase,[1]; […],1(3.4) n (%)
same,elevated blood unconjugated bilirubin,[1]; […],1(3.4) n (%)
same,epigastric pain,[1]; […],1(3.4) n (%)
same,epistaxis,[1]; […],2(6.9) n (%)
same,extraventricular contraction,[1]; […],1(3.4) n (%)
same,eye organ disease (SOC),[1]; […],2(6.9) n (%)
same,eyelid edema,[1]; […],1(3.4) n (%)
same,facial pain,[1]; […],1(3.4) n (%)
same,fatigue,[1]; […],3(10.3) n (%)
same,fever,[1]; […],2(6.9) n (%)
same,fungal skin infection,[1]; […],1(3.4) n (%)
same,gastritis,[1]; […],1(3.4) n (%)
same,gastroesophageal reflux disease,[1]; […],2(6.9) n (%)
same,gastrointestinal hemorrhage,[1]; […],1(3.4) n (%)
same,gastrointestinal system diseases (SOC),[1]; […],21(72.4) n (%)
same,head discomfort,[1]; […],1(3.4) n (%)
same,headache,[1]; […],14(48.3) n (%)
same,heart organ diseases (SOC),[1]; […],13(44.8) n (%)
same,heat and cold intolerance,[1]; […],1(3.4) n (%)
same,hematochezia,[1]; […],1(3.4) n (%)
same,hematuria,[1]; […],4(13.8) n (%)
same,hepatic failure,[1]; […],2(6.9) n (%)
same,hepato-biliary diseases (SOC),[1]; […],3(10.3) n (%)
same,herpes zoster,[1]; […],4(13.8) n (%)
same,herpesvirus infection,[1]; […],1(3.4) n (%)
same,high voltage on ECG,[1]; […],3(10.3) n (%)
same,hypercalcemia,[1]; […],1(3.4) n (%)
same,hyperglycemia,[1]; […],7(24.1) n (%)
same,hyperlipoidemia,[1]; […],4(13.8) n (%)
same,hypermagnesemia,[1]; […],3(10.3) n (%)
same,hypertension,[1]; […],2(6.9) n (%)
same,hypertriglyceridemia,[1]; […],2(6.9) n (%)
same,hyperuricemia,[1]; […],4(13.8) n (%)
same,hypoalbuminemia,[1]; […],1(3.4) n (%)
same,hypocalcemia,[1]; […],7(24.1) n (%)
same,hypochloremia,[1]; […],4(13.8) n (%)
same,hypokalemia,[1]; […],11(37.9) n (%)
same,hypomagnesemia,[1]; […],4(13.8) n (%)
same,hyponatremia,[1]; […],10(34.5) n (%)
same,hypophosphatemia,[1]; […],13(44.8) n (%)
same,hypotension,[1]; […],2(6.9) n (%)
same,increased blood creatinine,[1]; […],2(6.9) n (%)
same,increased lymphocyte count,[1]; […],1(3.4) n (%)
same,increased monocyte count,[1]; […],13(44.8) n (%)
same,increased serum bilirubin,[1]; […],4(13.8) n (%)
same,increased total bile acid,[1]; […],1(3.4) n (%)
same,increased troponin,[1]; […],1(3.4) n (%)
same,increased urobilinogen in the urine,[1]; […],3(10.3) n (%)
same,increased γ-glutamyl transferase,[1]; […],2(6.9) n (%)
same,infections and infestations diseases (SOC),[1]; […],13(44.8) n (%)
same,infectious pneumonia,[1]; […],1(3.4) n (%)
same,insomnia,[1]; […],1(3.4) n (%)
same,kidney and urinary system diseases (SOC),[1]; […],6(20.7) n (%)
same,left ventricular dysfunction,[1]; […],1(3.4) n (%)
same,limb pain,[1]; […],2(6.9) n (%)
same,loss of appetite,[1]; […],2(6.9) n (%)
same,mental disorder (SOC),[1]; […],1(3.4) n (%)
same,metabolic and nutritional diseases (SOC),[1]; […],23(79.3) n (%)
same,muscle weakness,[1]; […],1(3.4) n (%)
same,musculoskeletal discomfort,[1]; […],1(3.4) n (%)
same,nasal congestion,[1]; […],1(3.4) n (%)
same,nausea,[1]; […],15(51.7) n (%)
same,oral hypoesthesia,[1]; […],2(6.9) n (%)
same,oral mucositis,[1]; […],1(3.4) n (%)
same,palpitation,[1]; […],4(13.8) n (%)
same,parageusia,[1]; […],1(3.4) n (%)
same,pericardial effusion,[1]; […],1(3.4) n (%)
same,periodontitis,[1]; […],1(3.4) n (%)
same,peripheral edema,[1]; […],1(3.4) n (%)
same,petechia,[1]; […],2(6.9) n (%)
same,proteinuria,[1]; […],1(3.4) n (%)
same,pruritus,[1]; […],3(10.3) n (%)
same,pulmonary inflammation,[1]; […],1(3.4) n (%)
same,rash,[1]; […],3(10.3) n (%)
same,reduced intake,[1]; […],10(34.5) n (%)
same,renal failure,[1]; […],1(3.4) n (%)
same,respiratory tract infection,[1]; […],1(3.4) n (%)
same,right bundle branch block,[1]; […],1(3.4) n (%)
same,sinus bradycardia,[1]; […],1(3.4) n (%)
same,sinus tachycardia,[1]; […],7(24.1) n (%)
same,skin and subcutaneous tissue diseases (SOC),[1]; […],10(34.5) n (%)
same,skin pain,[1]; […],1(3.4) n (%)
same,skin xerosis,[1]; […],2(6.9) n (%)
same,soft tissue infection,[1]; […],1(3.4) n (%)
same,supraventricular extraventricular contraction,[1]; […],2(6.9) n (%)
same,systemic diseases and various reactions at the administration site (SOC),[1]; […],19(65.5) n (%)
same,tachypnea,[1]; […],3(10.3) n (%)
same,tongue ulcer,[1]; […],1(3.4) n (%)
same,upper respiratory tract bacterial infection,[1]; […],1(3.4) n (%)
same,upper respiratory tract infection,[1]; […],3(10.3) n (%)
same,urinary tract infection,[1]; […],3(10.3) n (%)
same,urine protein detection,[1]; […],4(13.8) n (%)
same,various musculoskeletal and connective tissue diseases (SOC),[1]; […],7(24.1) n (%)
same,various neurological diseases (SOC),[1]; […],19(65.5) n (%)
same,vascular and lymphatic diseases (SOC),[1]; […],3(10.3) n (%)
same,ventricular hypokinesia,[1]; […],1(3.4) n (%)
same,vesicular rash,[1]; […],1(3.4) n (%)
same,vomit,[1]; […],15(51.7) n (%)
same,weakness,[1]; […],14(48.3) n (%)
same,ST segment abnormalities on ECG,"[1]; […], second line of this term",1(3.4) n (%)
same,hypermagnesemia,"[1]; […], second line of this term",2(6.9) n (%)
same,Grade ≥3 lymphopenia,"[1]; all doses, N = 29",31.0%
same,Grade ≥3 thrombocytopenia,"[1]; all doses, N = 29",75.9%
